Data on 25 compounds can be found in patent US10875855B2 (priority 2011, dated 2020).

As usually defined, the EC99 is the point of the concentration-response curve where the effect stands at 99%. Broadly, the EC50 is the concentration giving half of the maximal effect. A word on the IC50: it is the concentration that gives 50% inhibition.

In assay [1] the test system is influenza A virus (A/PR/8/34). Kind of assay: microbe, parasite or virus in culture. The assay is classed as cell-based.
For assay [2], the system named is influenza A virus (A/PR/8/34). Kind of assay: MDCK cytopathic effect (CPE) cell protection assay, ATP detection. The assay is classed as cell-based.
Where [3] appears, read: Influenza A virus, PR/8, Table 1, mean all, class symbol, read-out: bDNA EC99.
Setting [4] is: Influenza A virus, PR/8, Table 1, viral RNA 50% of control wells, mean all, class symbol, read-out: bDNA EC50.
Setting [5] is: Influenza A virus, PR/8, MDCK, 72 h, Table 1, MDCK cells, A/PR/8/34, 72 hours, 50% cell protection, mean all, class symbol, read-out: MDCK IC50.
Setting [6] is: Table 1, viral RNA 50% of control wells, mean all, class symbol, read-out: bDNA EC50.
Setting [7] is: Table 1, MDCK cells, A/PR/8/34, 72 hours, 50% cell protection, mean all, class symbol, read-out: MDCK IC50.

Molecules are shown by their SMILES. Where two headings read alike, the source gives them in different places.

On to `CC(C)(C)[C@@H](CC(=O)O)Nc1nc(-c2c[nH]c3ncc(C(F)(F)F)cc23)ncc1F` [Compound 43, (R)-3-((5-fluoro-2-(5-(trifluoromethyl)-1H-pyrrolo[2,3-b]pyridin-3-yl)pyrimidin-4-yl)amino)-4,4-dimethylpentanoic acid], for which the EC99 in assay [1] (setting [3]) is under 0.3 µM. The EC50 in assay [1] (setting [4]) is under 300 nM. Moreover, the IC50 in assay [2] (setting [5]) is under 300 nM.

For `CC(C)(C)[C@@H](CS(C)(=O)=O)Nc1nc(-c2c[nH]c3ncc(F)cc23)ncc1F` [Compound 46, (S)—N-(3,3-dimethyl-1-(methylsulfonyl)butan-2-yl)-5-fluoro-2-(5-fluoro-1H-pyrrolo[2,3-b]pyridin-3-yl)pyrimidin-4-amine], in assay [1] (setting [3]), the EC99 is over 3.3 µM. Besides, the EC50 in assay [1] (setting [4]) was 300 to 3300 nM. Further, the IC50 in assay [2] (setting [5]) is under 300 nM.

For `CC(C)(C)[C@@H](CC(=O)O)Nc1ccnc(-c2c[nH]c3ncc(F)cc23)n1` [Compound 47, (R)-3-((2-(5-fluoro-1H-pyrrolo[2,3-b]pyridin-3-yl)pyrimidin-4-yl)amino)-4,4-dimethylpentanoic acid], the EC99 in assay [1] (setting [3]) lay within 0.3 to 3.3 µM. Further, the EC50 in assay [1] (setting [4]) is under 300 nM. For the same compound, the IC50 in assay [2] (setting [5]) was under 300 nM.

As for `CC(C)(C)[C@@H](CC(=O)O)Nc1ccnc(-c2n[nH]c3ncc(F)cc23)n1` [Compound 48, (R)-3-((2-(5-fluoro-1H-pyrazolo[3,4-b]pyridin-3-yl)pyrimidin-4-yl)amino)-4,4-dimethylpentanoic acid], the EC99 in assay [1] (setting [3]) is 0.3 to 3.3 µM. The EC50 in assay [1] (setting [4]) fell in the range of 300 to 3300 nM. Besides, the IC50 in assay [2] (setting [5]) is under 300 nM.

For the compound `CC(C)(C)[C@@H](CO)Nc1nc(-c2c[nH]c3ncc(Cl)cc23)ncc1F` [Compound 49, (S)-2-((2-(5-chloro-1H-pyrrolo[2,3-b]pyridin-3-yl)-5-fluoropyrimidin-4-yl)amino)-3,3-dimethylbutan-1-ol], the EC99 in assay [1] (setting [3]) fell in the range of 0.3 to 3.3 µM. Further, the EC50 in assay [1] (setting [4]) was under 300 nM. For the same compound, the IC50 in assay [2] (setting [5]) is under 300 nM.

`CC(C)(C)C(Nc1nc(-c2c[nH]c3ncc(F)cc23)ncc1F)C1CC1C(=O)O` (stereo not shown) [Compound 50, 2-(1-((5-fluoro-2-(5-fluoro-1H-pyrrolo[2,3-b]pyridin-3-yl)pyrimidin-4-yl)amino)-2,2-dimethylpropyl)cyclopropanecarboxylic acid]: the EC99 in assay [1] (setting [3]) lay in the range of 0.3 to 3.3 µM. Also, the EC50 in assay [1] (setting [4]) was under 300 nM. Besides, in assay [2] (setting [5]), the IC50 was under 300 nM.

Take `CC(C)(C)N(CC(=O)O)Nc1nc(-c2c[nH]c3ncc(F)cc23)ncc1F` [Compound 53, 2-(1-(tert-butyl)-2-(5-fluoro-2-(5-fluoro-1H-pyrrolo[2,3-b]pyridin-3-yl)pyrimidin-4-yl)hydrazinyl)acetic acid]: the EC99 in assay [1] (setting [3]) was 0.3 to 3.3 µM. In addition, the EC50 in assay [1] (setting [4]) is under 300 nM. Moreover, the IC50 in assay [2] (setting [5]) is under 300 nM.

In the case of `CC(C)(C)N(CC(=O)O)Nc1nc(-c2c[nH]c3ncc(C(F)(F)F)cc23)ncc1F` [Compound 54, 2-(1-(tert-butyl)-2-(5-fluoro-2-(5-(trifluoromethyl)-1H-pyrrolo[2,3-b]pyridin-3-yl)pyrimidin-4-yl)hydrazinyl)acetic acid], the EC99 in assay [1] (setting [3]) was 0.3 to 3.3 µM. For the same compound, the EC50 in assay [1] (setting [4]) was under 300 nM. Also, in assay [2] (setting [5]), the IC50 is under 300 nM.

Take `CC(C)(C)N(CC(=O)O)Nc1nc(-c2c[nH]c3ncc(Cl)cc23)ncc1F` [Compound 56, 2-(1-(tert-butyl)-2-(2-(5-chloro-1H-pyrrolo[2,3-b]pyridin-3-yl)-5-fluoropyrimidin-4-yl)hydrazinyl)acetic acid]: the EC99 in assay [1] (setting [3]) is under 0.3 µM. Further, the EC50 in assay [1] (setting [4]) was under 300 nM. Besides, the IC50 in assay [2] (setting [5]) is under 300 nM.

Turning to `CC(C)(C)[C@@H](CS(=O)(=O)NCC(F)F)Nc1nc(-c2c[nH]c3ncc(F)cc23)ncc1F` [Compound 57, (S)—N-(2,2-difluoroethyl)-2-(5-fluoro-2-(5-fluoro-H-pyrrolo[2,3-b]pyridin-3-yl)pyrimidin-4-ylamino)-3,3-dimethylbutane-1-sulfonamide], the EC99 in assay [1] (setting [3]) was under 0.3 µM. The EC50 in assay [1] (setting [4]) is under 300 nM. Moreover, the IC50 in assay [2] (setting [5]) is under 300 nM.

As for `CC(C)(C)[C@@H](CS(=O)(=O)NCC(F)(F)F)Nc1nc(-c2c[nH]c3ncc(F)cc23)ncc1F` [Compound 58, (S)-2-(5-fluoro-2-(5-fluoro-1H-pyrrolo[2,3-b]pyridin-3-yl)pyrimidin-4-ylamino)-3,3-dimethyl-N-(2,2,2-trifluoroethyl)butane-1-sulfonamide], the EC99 in assay [1] (setting [3]) is under 0.3 µM. Moreover, the EC50 in assay [1] (setting [4]) is under 300 nM. Besides, the IC50 in assay [2] (setting [5]) was under 300 nM.

On to `CC(C)(C)[C@@H](/C=C/C(=O)O)Nc1nc(-c2c[nH]c3ncc(F)cc23)ncc1F` [Compound 59, (R,E)-4-((5-fluoro-2-(5-fluoro-1H-pyrrolo[2,3-b]pyridin-3-yl)pyrimidin-4-yl)amino)-5,5-dimethylhex-2-enoic acid], for which, in assay [1] (setting [3]), the EC99 fell in the range of 0.3 to 3.3 µM. Also, in assay [1] (setting [4]), the EC50 is under 300 nM. For the same compound, in assay [2] (setting [5]), the IC50 was under 300 nM.

For `CC(C)(C)[C@@H](CS(=O)(=O)CC(=O)O)Nc1nc(-c2c[nH]c3ncc(F)cc23)ncc1F` [Compound 60, (S)-2-(2-(5-fluoro-2-(5-fluoro-1H-pyrrolo[2,3-b]pyridin-3-yl)pyrimidin-4-ylamino)-3,3-dimethylbutylsulfonyl)ethanoic acid], the EC99 in assay [1] (setting [3]) was over 3.3 µM. For the same compound, the EC50 in assay [1] (setting [4]) was in the range of 300 to 3300 nM. In addition, the IC50 in assay [2] (setting [5]) is under 300 nM.

Consider `CC(C)(C)[C@@H](CS(=O)(=O)CC(=O)O)Nc1nc(-c2c[nH]c3ncc(Cl)cc23)ncc1F` [Compound 61, (S)-2-(2-(2-(5-chloro-1H-pyrrolo[2,3-b]pyridin-3-yl)-5-fluoropyrimidin-4-ylamino)-3,3-dimethylbutylsulfonyl)ethanoic acid], for which the EC99 in assay [1] (setting [3]) is 0.3 to 3.3 µM. For the same compound, the EC50 in assay [1] (setting [4]) is under 300 nM. Moreover, in assay [2] (setting [5]), the IC50 was under 300 nM.

As to `CC1(C(CC(=O)O)Nc2nc(-c3c[nH]c4ncc(F)cc34)ncc2F)CCC1` (stereo not shown) [Compound 63], in assay [1] (setting [3]), the EC99 was under 0.3 µM. Moreover, the EC50 in assay [1] (setting [4]) is under 300 nM. Also, the IC50 in assay [2] (setting [5]) was under 300 nM.

As to `CC(C)(C)[C@@H](CC(O)C(F)(F)F)Nc1nc(-c2c[nH]c3ncc(F)cc23)ncc1F` (stereo partly drawn) [Compound 66, (4R)-1,1,1-trifluoro-4-((5-fluoro-2-(5-fluoro-1H-pyrrolo[2,3-b]pyridin-3-yl)pyrimidin-4-yl)amino)-5,5-dimethylhexan-2-ol], in assay [1] (setting [3]), the EC99 fell in the range of 0.3 to 3.3 µM. In assay [1] (setting [4]), the EC50 was under 300 nM. Moreover, the IC50 in assay [2] (setting [5]) is under 300 nM.

For the compound `CC(C)(C)[C@@H](CC(O)C(F)(F)F)Nc1nc(-c2c[nH]c3ncc(F)cc23)ncc1F` (stereo partly drawn) [Compound 67, (4R)-1,1,1-trifluoro-4-((5-fluoro-2-(5-fluoro-1H-pyrrolo[2,3-b]pyridin-3-yl)pyrimidin-4-yl)amino)-5,5-dimethylhexan-2-ol], the EC50 in assay [1] (setting [6]) is under 300 nM. In addition, in assay [2] (setting [7]), the IC50 is under 300 nM.

Turning to `CC(C)(C)[C@@H](Cn1cc(CO)nn1)Nc1nc(-c2c[nH]c3ncc(F)cc23)ncc1F` [Compound 68, (S)-(1-(2-((5-fluoro-2-(5-fluoro-1H-pyrrolo[2,3-b]pyridin-3-yl)pyrimidin-4-yl)amino)-3,3-dimethylbutyl)-1H-1,2,3-triazol-4-yl)methanol], the EC99 in assay [1] (setting [3]) lay within 0.3 to 3.3 µM. In addition, the EC50 in assay [1] (setting [4]) was under 300 nM. Also, in assay [2] (setting [5]), the IC50 is 300 to 3300 nM.

`CC(C)(C)[C@@H](CCP(=O)(O)O)Nc1nc(-c2c[nH]c3ncc(F)cc23)ncc1F` [Compound 69, (R)-(3-((5-fluoro-2-(5-fluoro-1H-pyrrolo[2,3-b]pyridin-3-yl)pyrimidin-4-yl)amino)-4,4-dimethylpentyl)phosphonic acid]: the EC99 is over 3.3 µM in assay [1] (setting [3]) and 8.4 µM in assay [1] (exemplary data, bDNA). Further, the EC50 in assay [1] (setting [4]) was 300 to 3300 nM; in assay [1] (Influenza A virus, PR/8, exemplary data, bDNA, read-out: EC50), 800 nM. For the same compound, the IC50 in assay [2] (setting [5]) was 300 to 3300 nM; in assay [2] (Influenza A virus, PR/8, MDCK, exemplary data, MDCK cell protection, read-out: IC50) it was 2310 nM.

Regarding `CC(C)(C)[C@@H](CC(O)CO)Nc1nc(-c2c[nH]c3ncc(F)cc23)ncc1F` (stereo partly drawn) [Compound 70, (4R)-4-((5-fluoro-2-(5-fluoro-1H-pyrrolo[2,3-b]pyridin-3-yl)pyrimidin-4-yl)amino)-5,5-dimethylhexane-1,2-diol], the EC99 in assay [1] (setting [3]) lay in the range of 0.3 to 3.3 µM. Moreover, the EC50 in assay [1] (setting [4]) was under 300 nM. For the same compound, the IC50 in assay [2] (setting [5]) is under 300 nM.

In the case of `CC(C)(C)[C@@H](CC(O)CO)Nc1nc(-c2c[nH]c3ncc(F)cc23)ncc1F` (stereo partly drawn) [Compound 71, (4R)-4-((5-fluoro-2-(5-fluoro-1H-pyrrolo[2,3-b]pyridin-3-yl)pyrimidin-4-yl)amino)-5,5-dimethylhexane-1,2-diol], the “bDNA EC99 (uM)” value in assay [1] (Table 1, mean all, class symbol) is on record as “A (EC99 (mean all)<0.3 μM)”. Also, the EC50 in assay [1] (setting [6]) was under 300 nM. Further, the IC50 in assay [2] (setting [7]) was under 300 nM.

Turning to `CC(O)C[C@@H](Nc1nc(-c2c[nH]c3ncc(F)cc23)ncc1F)C(C)(C)C` (stereo partly drawn) [Compound 73, (4R)-4-((5-Fluoro-2-(5-fluoro-1H-pyrrolo[2,3-b]pyridin-3-yl)pyrimidin-4-yl)amino)-5,5-dimethylhexan-2-ol], the EC50 in assay [1] (setting [4]) fell in the range of 300 to 3300 nM. In addition, in assay [2] (setting [5]), the IC50 was over 3300 nM.

Regarding `CC1(C(CC(=O)O)Nc2nc(-c3c[nH]c4ncc(F)cc34)ncc2F)CC1` (stereo not shown) [Compound 74], the EC99 in assay [1] (setting [3]) was 0.3 to 3.3 µM. The EC50 in assay [1] (setting [4]) is 300 to 3300 nM. Also, the IC50 in assay [2] (setting [5]) is 300 to 3300 nM.

Consider `CC1(C(CC(=O)O)Nc2nc(-c3c[nH]c4ncc(F)cc34)ncc2F)CCCCC1` (stereo not shown) [Compound 78, 3-(5-fluoro-2-(5-fluoro-1H-pyrrolo[2,3-b]pyridin-3-yl)pyrimidin-4-ylamino)-3-(1-methylcyclohexyl)propanoic acid], for which, in assay [1] (setting [3]), the 99% effect concentration (EC99) lay within 0.3 to 3.3 µM. The EC50 in assay [1] (setting [4]) is under 300 nM. Moreover, in assay [2] (setting [5]), the IC50 is under 300 nM.

On to `CCOC(=O)CC(Nc1nc(-c2c[nH]c3ncc(Cl)cc23)ncc1F)C1(C)CCCCC1` (stereo not shown) [Compound 82], for which, in assay [1] (setting [3]), the EC99 was over 3.3 µM. Besides, the EC50 in assay [1] (setting [4]) was over 3300 nM. In addition, the IC50 in assay [2] (setting [5]) is over 3300 nM.
